“And” between values parts separate entries of the source, which are not always exact repeats. Equal entries are not always repeated.
Experiments:
Assay type in all cases: cell-based, human
[1] = test system: SCC-112 mRNA in LnCap prostate cancer cells; test: Northern hybridization of SCC-112 mRNA in androgen-treated LNCaP cells
Description: FIG. 5. Androgen induces the steady state levels of SCC-112 mRNA in prostate cancer cells. LNcap prostate cancer cells were grown in IMEM with 5% FBS. Logarithmically growing cells were switched to medium containing 5% charcoal stripped serum […] before the experiment. Indicated concentrations of synthetic androgen, R1881 (NEN) were added for 48 h. Total RNA was isolated and subjected to Northern hybridization using SCC-112 as probe.
FIG. 6. […] LnCAP cells were grown in IMEM medium containing 5% fetal bovine serum. Medium was replaced with 5% charcoal-stripped serum containing medium for 24 h, followed by addition of indicated concentration of synthetic androgen (R1881) for 48 h. Total RN A was isolated from various treatments and analyzed by northern blotting and hybridization using a radiolabeled SCC-112 cDNA fragment (1568 bp-6744 bp).
(§1) RNA Isolation and Northern Hybridization: MDA-MB 435 cells were synchronized at different cell cycle stages, and total RNA was isolated with Trizol reagent according to the manufacturer's instructions (Invitrogen Life technologies, Inc.). […] The autoradiographs were scanned and bands were quantified using IMAGEQUANT software (Molecular Dynamics, Sunnyvale, Calif.).

[2] = test system: SCC-112 protein in MDA-MB 435 cells; test: Western blot of SCC-112 protein in nocodazole-arrested (G2/M) MDA-MB 435 cells; details: 100 ng/ml, 16 h, G2/M phase
Description: (§2) (C) Expression of SCC-112 mRNA and protein in G2/M phase. Logarithmically growing cells were arrested at G2/M phase using 100 ng/ml of nocodazole for 16 h (+). SCC-112 mRNA (upper) and protein levels (lower) were quantified as above. The SCC-112. mRNA level was ˜2 fold higher during G2/M phase (+) as compared to untreated cells (−). SCC-112 protein level was elevated during G2/M phase (˜5 fold) in nocodazole treated cells (+) as compared to untreated cells (−).
Western Blot Analysis: The cells were rinsed with ice-cold PBS and scrapped in lysis solution containing Tris (20 mM, pH 8.0), NaCl (150 mM), 1% NP-40 (w/v), 10% glycerol (w/v), 1 mM phenylmethylsulphonyl fluoride (PMSF), aprotinin (20 ug/ml) and leupeptin (20 ug/ml). The cells were lysed for 45 min with vigorous shaking at 4° C. and centrifuged at 12,000×g for 15 min at 4° C. Fifty micrograms of total protein were heat denatured by boiling for 5 min in SDS-PAGE loading buffer. After SDS-PAGE, the proteins were electrophoretically transferred on to PVDF membrane (Millipore). […]
(§3) Cell Synchronization and Flow Cytometry: Logarithmically growing MDA-MB 435 cells were treated with 4 ug/ml aphidicolin, a DNA polymerase-a inhibitor, for 24 h to synchronize cells at G1/S phase. […] The cell cycle distribution profiles were determined using a Fluorescence Activated Cell Sorter (Becton Dickinson).

[3] = test system: SCC-112 mRNA in MDA-MB 435 cells; test: Northern hybridization of SCC-112 mRNA in nocodazole-arrested (G2/M) MDA-MB 435 cells; details: 100 ng/ml, 16 h, G2/M phase
Description: as §2, §1, §3

SMILES | induction of steady state level of SCC-112 transcript (~8.0 kb) ([1]; LNCaP cells, charcoal-stripped serum, 1 nM to 100 nM, 48 h, vs untreated cells) | effect on SCC-112 mRNA expression (in words) ([1]; LNCap cells, FIG. 5) | SCC-112 protein level vs untreated cells [2] [fold] | SCC-112 mRNA level vs untreated cells [3] [fold]
C[C@]1(O)CC[C@H]2[C@@H]3CCC4=CC(=O)CCC4=C3C=C[C@@]21C [R1881] | 4-7 fold and 4- to 7 fold | induces SCC-112 mRNA expression | – | –
COC(=O)Nc1nc2ccc(C(=O)c3cccs3)cc2[nH]1 [nocodazole] | – | – | ~5 | ~2

— patent US7351811B2, “Gene SCC-112 and diagnostic and therapeutic uses thereof” (Georgetown University, priority 2001, dated 2008)
